pIC50: −log10 of the molar value.
Target: Replicase polyprotein 1ab (Severe acute respiratory syndrome coronavirus, UniProt P0C6X7)
Test: SARS-CoV 3CL Protease Inhibition Assay
Conditions: pH 7; 25 °C
Protocol: The effects of compound on enzyme activity were measured by using a fluorogenic peptide cleavage assay. Enhanced fluorescence caused by cleavage of the substrate peptide was monitored at 538 nm with excitation at 355 nm. The Ki measurements were performed at two fixed inhibitor concentrations and various substrate concentrations.

CCOC(=O)/C=C/[C@H](C[C@@H]1CCNC1=O)NC(=O)[C@@H](CC(=O)[C@@H](NC(=O)c1cc(C)on1)C(C)C)Cc1ccc(F)cc1 [ethyl (2E,4S)-4-[((2R,5S)-2-(4-fluorobenzyl)-6-methyl-5-{[(5-methylisoxazol-3-yl)carbonyl]amino}-4-oxoheptanoyl)amino]-5-[(3S)-2-oxopyrrolidin-3-yl]pent-2-enoate] was tested, and the pIC50 was under 4.00.

— BindingDB's records for doi:10.1016/j.bmc.2005.05.065 (National Taiwan University, 2005)
